Test results published in BindingDB's records for doi:10.1021/ja057257n (University of Pennsylvania, 2006).

Experiments:
Carbonic anhydrase 2 = Carbonic anhydrase 2 (Homo sapiens, UniProt P00918); assay: Competitive Displacement Binding Assay; conditions: pH 7; 25 °C
Experimental: (§1) The dissociation constant of the hCA and inhibitor complex was determined by competitive displacement of a fixed concentration of dansylamide by increasing concentrations of the inhibitor using Perkin-Elmer lambda 50-B spectrofluorometer. […] The dissociation constant of the enzyme-inhibitor complex was determined by monitoring the decrease in the fluorescence of the enzyme-dansylamide complex as a function of the increasing concentration of the inhibitor.

Carbonic anhydrase 1 = Carbonic anhydrase 1 (Homo sapiens, UniProt P00915); assay: Competitive Displacement Binding Assay; conditions: pH 7; 25 °C
Sequence of Carbonic anhydrase 1 (P00915 whole entry): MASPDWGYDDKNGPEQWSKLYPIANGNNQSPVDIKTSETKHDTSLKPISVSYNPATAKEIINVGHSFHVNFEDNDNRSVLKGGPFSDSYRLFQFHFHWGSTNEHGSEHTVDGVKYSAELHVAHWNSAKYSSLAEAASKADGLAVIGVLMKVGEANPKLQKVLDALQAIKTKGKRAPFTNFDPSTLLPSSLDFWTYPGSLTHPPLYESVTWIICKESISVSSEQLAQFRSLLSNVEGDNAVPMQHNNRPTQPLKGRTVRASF
Experimental: as §1

Kd (Carbonic anhydrase 2): 235 nM | Kd (Carbonic anhydrase 1): 200 nM
Compound: NS(=O)(=O)c1ccc(CCNC(=O)c2ccc(CN(CC(=O)O)CC(=O)O)cc2)cc1 [copper(2+) ion 2-[(carboxylatomethyl)[(4-{[2-(4-sulfamoylphenyl)ethyl]carbamoyl}phenyl)methyl]amino]acetate]
